From US7598234B2, “Steroid derived antibiotics” (Brigham Young University, priority 1998, dated 2009)
In brackets after ≈: the same amount, converted by molar mass.

Key:
E. coli (ATCC 10798) [1] = test: MIC and MBC measurement with E. coli (ATCC 10798); assay type: cell-based, Escherichia coli
From the text: (§1) General: Microorganisms. Reference strains were purchased from the American Type Culture Collection (Rockville, Md.) or Bactrol disks from Difeo Laboratories (Detroit, Mich.). The following specific ATCC strains were used: 10798 Escherichia coli, 25922 Escherichia coli, 13883 Klebsiella pneumoniae, 27853 Pseudomonas aeruginosa, 14028 Salmonella typhimurium, 29212 Enterococcus faecalis, 25923 Staphylococcus aureus, 19615 Streptococcus pyogenes, and 90028 Candida albicans. Bacterial strains were maintained on Mueller-Hinton agar plates, and Candida albicans was maintained on Sabouraud Dextrose agar plates.
(§2) Tryptic soy broth (TSB) was made by dissolving 27.5 grams of tryptic soy broth without dextrose (DIFCO Laboratories) in 1 liter of deionized water and sterilizing at 121° C. for 15 minutes. Solid agar (TSA) plates were made by dissolving 6.4 grams of tryptic soy broth and 12 grams of agar (purified grade, Fischer Scientific) in 800 mL of deionized water and sterilizing at 121° C. for 20 minutes. Aliquots (20 mL) of the homogeneous solution were then poured in sterile plastic petri dishes (100×15 mm, Fisher Scientific). Solutions of compounds were made by dissolving the HCl salt of the respective compound into an appropriate amount of deionized and sterilized water followed by microfiltration.
(§3) Aliquots of 1 mL of the suspension were added to test tubes containing 1 mL TSB and incrementally varied concentrations of cholic acid derivatives and/or erythromycin or novobiocin. In the sensitization experiments, erythromycin or novobiocin were added 15 minutes later than the cholic acid derivatives. The samples were subjected to stationary incubation at 37° C. for 24 hours. Sample turbidity was determined by measuring absorption at 760 nm (HP 8453 UV-Visible Chemstation, Hewlett Packard). Additionally, an alliquot from each of the samples showing no measurable turbidity was subcultured on TSA plates (alliquots were diluted to provide fewer than 300 CFU). Colonies that grew on the subculture after overnight incubation were counted and the number of CFU/mL in the samples were calculated. The calculated values were compared to the number of CFU/mL in the original inoculum.

E. coli (ATCC 10798) [2] = test: Sensitization to erythromycin (concentration lowering the MIC of erythromycin), E. coli (ATCC 10798); assay type: cell-based, Escherichia coli; details: for (a) Concentration required to lower the MIC of erythromycin from 70 to 1 μg/mL / (b) MBC with 1 μg/mL erythromycin / FIC values with erythromycin: Table 9, Escherichia coli (ATCC 10798)
Experimental: (§4) Alternatively, “fractional inhibitory concentration (FIC)” is also useful for determination of synergy between the compounds of the invention, or the compounds in combination with known antibiotics. FICs can be performed by checkerboard titrations of compounds in one dimension of a microtiter plate, and of antibiotics in the other dimension, for example. The FIC is calculated by looking at the impact of one antibiotic on the MIC of the other and vice versa. […] Preferably, an FIC of less than 0.5 is obtained for synergism. As used herein, FIC can be determined as follows:
as §3
(§5) Ability to permeabilize outer membrane: Compounds 11, 106, and 108-114 (FIG. 1) were tested for antibiotic activity. They were also tested for the ability to permeabilize the outer membrane of Gram-negative bacteria, causing sensitization to hydrophobic antibiotics that cannot cross the outer membrane. The permeabilization of the outer membrane was measured using erythromycin and novobiocin.
(§6) The MICs of erythromycin and novobiocin against E. coli (ATCC 10798) at 70 and >500 μg/mL were measured.

E. coli (ATCC 10798) [3] = test: Sensitization to novobiocin (concentration lowering the MIC of novobiocin), E. coli (ATCC 10798); assay type: cell-based, Escherichia coli; details: Table 9; Escherichia coli (ATCC 10798)
Experimental: as §4, §3, §5, §6

[4] = test system: Pseudomonas aeruginosa (ATCC 27853); test: MIC and MBC measurement with Pseudomonas aeruginosa (ATCC 27853); assay type: cell-based; details: P. aureginosa (ATCC 27853); for MIC: Table 6
From the text: as §1, §2, §3

[5] = test system: Pseudomonas aeruginosa (ATCC 27853); test: Sensitization to erythromycin, Pseudomonas aeruginosa (ATCC 27853); assay type: cell-based; details: Table 7; P. aureginosa (ATCC 27853)
Experimental: as §4
as §3, with “inoculum. […]” for “inoculum.”
To measure permeabilization, the FIC values for compounds 1, 2, 5, 106, 10, 112, 133, and 134 with erythromycin, novobiocin, and rifampicin were determined. Concentrations of 0.5, 1.0 or 3.0 μg/mL of these antibiotics were used, and the concentrations of the cholic acid derivatives required to inhibit bacterial growth of Gram-negative strains were determined.

[6] = Table 9, Escherichia coli (ATCC 10798)

## C[C@H](CCCO)[C@H]1CC[C@H]2[C@@H]3[C@H](OCCCN)C[C@@H]4C[C@H](OCCCN)CC[C@]4(C)[C@H]3C[C@H](OCCCN)[C@]12C [Compound 110]
E. coli (ATCC 10798) [1]; [6]
  MBC: 60 µg/mL (≈ 106 µM)
  MIC: 36 µg/mL (≈ 63.6 µM)
E. coli (ATCC 10798) [2]
  (a) Concentration required to lower the MIC of erythromycin from 70 to 1 μg/mL: 2.0 µg/mL
  (b) MBC with 1 μg/mL erythromycin: 50 µg/mL
  FIC values with erythromycin: 0.070
E. coli (ATCC 10798) [3]
  (d) Concentration required to lower the MIC of novobiocin from >500 to 1 μg/mL: 4.0 µg/mL
  FIC values with novobiocin: 0.11

## C[C@H](CCCN(C)Cc1ccccc1)[C@H]1CC[C@H]2[C@@H]3[C@H](OCCN)C[C@@H]4C[C@@H](OCCN)CC[C@]4(C)[C@H]3C[C@H](OCCN)[C@]12C [Compound 8]
E. coli (ATCC 10798) [1]; Table 1, E. coli (ATCC 10798)
  MIC: 46 µg/mL (≈ 73.4 µM)
E. coli (ATCC 10798) [2]; Table 2, E. coli (ATCC 10798)
  MIC: concentration required to lower the MIC of erythromycin from 70 μg/mL to 1 μg/mL: 10 µg/mL
[4]
  MIC: 50 µg/mL (≈ 79.7 µM)
[5]
  MIC: concentration required to lower the MIC of erythromycin from 240 μg/mL to 5 μg/mL: 40 µg/mL

## CCCCCCCCOCCC[C@@H](C)[C@H]1CC[C@H]2[C@@H]3[C@H](OCCCN)C[C@@H]4C[C@H](OCCCN)CC[C@]4(C)[C@H]3C[C@H](OCCCN)[C@]12C [Compound 9]
E. coli (ATCC 10798) [1]; Table 1, E. coli (ATCC 10798)
  MBC: 10 µg/mL (≈ 14.7 µM)
  MIC: 3 µg/mL (≈ 4.42 µM)
E. coli (ATCC 10798) [2]; Table 2, E. coli (ATCC 10798)
  MIC: concentration required to lower the MIC of erythromycin from 70 μg/mL to 1 μg/mL: 3 µg/mL
E. coli (ATCC 10798) [2]; Table 2, E. coli (ATCC 10798), erythromycin sensitization
  MBC (with erythromycin): 3 µg/mL
[4]
  MIC: 8 µg/mL (≈ 11.8 µM)
[5]
  MIC: concentration required to lower the MIC of erythromycin from 240 μg/mL to 5 μg/mL: 5 µg/mL

## C[C@H](CCO)[C@H]1CC[C@H]2[C@@H]3[C@H](OCCCN)C[C@@H]4C[C@H](OCCCN)CC[C@]4(C)[C@H]3C[C@H](OCCCN)[C@]12C [Compound 109]
E. coli (ATCC 10798) [2]
  FIC values with erythromycin: 0.071
E. coli (ATCC 10798) [3]
  FIC values with novobiocin: 0.22

## CO[C@@H]1[C@@H](OC(N)=O)[C@@H](O)[C@H](Oc2ccc3c(O)c(NC(=O)c4ccc(O)c(CC=C(C)C)c4)c(=O)oc3c2C)OC1(C)C [novobiocin, reference compound]
[4]; starting MIC in sensitization tests
  MIC of the antibiotic alone: >500 μg/mL to 1 μg/mL with P. aureginosa (ATCC 27853).

## C[C@H](CCCOS(=O)(=O)O)[C@H]1CC[C@H]2[C@@H]3[C@H](OCCCN)C[C@@H]4C[C@H](OCCCN)CC[C@]4(C)[C@H]3C[C@H](OCCCN)[C@]12C [Compound 132]
E. coli (ATCC 10798) [1]; E. coli (ATCC 10798)
  MIC: 60 µg/mL (≈ 92.9 µM)
E. coli (ATCC 10798) [2]; E. coli (ATCC 10798)
  concentration required to lower the MIC of erythromycin to 1 μg/mL: 4.0 µg/mL

## CCCCCOCCC[C@@H](C)[C@H]1CC[C@H]2[C@@H]3[C@H](OCCCN)C[C@@H]4C[C@H](OCCCN)CC[C@]4(C)[C@H]3C[C@H](OCCCN)[C@]12C [Compound 113]
E. coli (ATCC 10798) [1]; [6]
  MBC: 5.0 µg/mL (≈ 7.86 µM)
  MIC: 3.0 µg/mL (≈ 4.72 µM)
E. coli (ATCC 10798) [2]
  (a) Concentration required to lower the MIC of erythromycin from 70 to 1 μg/mL: 0.8 µg/mL
  (b) MBC with 1 μg/mL erythromycin: 2.0 µg/mL
  FIC values with erythromycin: 0.28
E. coli (ATCC 10798) [3]
  (d) Concentration required to lower the MIC of novobiocin from >500 to 1 μg/mL: 1.0 µg/mL
  FIC values with novobiocin: 0.27
